Source: ChEMBL document CHEMBL1145500, “In vitro bactericidal activity of the antiprotozoal drug miltefosine against Streptococcus pneumoniae and other pathogenic streptococci” (2007)
Converted amounts (≈) assume the structure as drawn. The source made the active and inactive calls. The calls are words filed in the database; no cut-off is given here.

What was measured:
Streptococcus sp. [1] = assay: Antimicrobial activity against Streptococcus sp. 782/96; assay type: functional
Streptococcus sp. [2] = assay: Antimicrobial activity against Streptococcus sp.11923/96; assay type: functional
Streptococcus pneumoniae [3] = assay: Antimicrobial activity against Streptococcus pneumoniae spain 23F-1; assay type: functional
Streptococcus pyogenes = assay: Antimicrobial activity against Streptococcus pyogens CECT 985
Streptococcus pneumoniae [4] = assay: Antimicrobial activity against Streptococcus pneumoniae R6; assay type: functional
Streptococcus pneumoniae [5] = assay: Antimicrobial activity against Streptococcus pneumoniae ATCC 6303; assay type: functional
Streptococcus sp. [6] = assay: Bactericidal effect on Streptococcus sp.11923/96 at 10 uM; assay type: functional, organism-based
[7] = system: Streptococcus pseudopneumoniae; assay: Bactericidal effect on Streptococcus pseudopneumoniae at 10 uM; assay type: functional
Streptococcus oralis = assay: Antimicrobial activity against Streptococcus oralis NCTC 11427
Streptococcus agalactiae = assay: Antimicrobial activity against Streptococcus agalactiae CECT 183; assay type: functional
Streptococcus pneumoniae [8] = assay: Induction of autolysin LytA Streptococcus pneumoniae M32 assessed as log reduction in bacterial count at 25 uM after 3 hrs; assay type: functional
Streptococcus pneumoniae [9] = assay: Lytic effect on Streptococcus pneumoniae M32 in presence of 10 ug/ml LytA amidase; assay type: functional, organism-based
Streptococcus mutans = assay: Antimicrobial activity against Streptococcus mutans CECT 479; assay type: functional
Streptococcus pneumoniae [10] = assay: Antimicrobial activity against Streptococcus pneumoniae M32; assay type: functional
Streptococcus pneumoniae [11] = assay: Antimicrobial activity against Streptococcus pneumoniae 8249; assay type: functional
Streptococcus sp. [12] = assay: Bactericidal effect on Streptococcus sp. 782/96 at 10 uM; assay type: functional, organism-based
Streptococcus pneumoniae [13] = assay: Induction of autolysin LytA in Streptococcus pneumoniae M32 assessed as log reduction in bacterial count at 25 uM after 15 mins; assay type: functional
Enterococcus faecalis = assay: Antimicrobial activity against Enterococcus faecalis; assay type: functional
Streptococcus mitis = assay: Antimicrobial activity against Streptococcus mitis NCTC 12161; assay type: functional

Work on `CC[C@H]1OC(=O)[C@H](C)[C@@H](O[C@H]2C[C@@](C)(OC)[C@@H](O)[C@H](C)O2)[C@H](C)[C@@H](O[C@@H]2O[C@H](C)C[C@H](N(C)C)[C@H]2O)[C@](C)(O)C[C@@H](C)C(=O)[C@H](C)[C@@H](O)[C@]1(C)O` [ERYTHROMYCIN] yielded an MIC (Streptococcus sp. [1]) of over 128 µg/mL and an MIC (Streptococcus sp. [2]) of 4 µg/mL (≈ 5.45 µM).

`O=C(N[C@H](CO)[C@H](O)c1ccc([N+](=O)[O-])cc1)C(Cl)Cl` [CHLORAMPHENICOL] was tested, and the MIC (Streptococcus pneumoniae [3]) was over 8 µg/mL.

`CCCCCCCCCCCCCCCCOP(=O)([O-])OCC[N+](C)(C)C` [MILTEFOSINE] showed an MIC (Streptococcus pyogenes) of 10 µM (≈ 4.08 µg/mL), an MIC (Streptococcus pneumoniae [4]) of 5 µM (≈ 2.04 µg/mL) and an MIC (Streptococcus pneumoniae [5]) of 6.25 µM (≈ 2.55 µg/mL). The Activity (Streptococcus sp. [6]) was “Active”, the Activity [7] was “Active” and the MIC (Streptococcus oralis) was 10 µM (≈ 4.08 µg/mL). It also gave an MIC (Streptococcus agalactiae) of 20 µM (≈ 8.15 µg/mL), an MIC (Streptococcus pneumoniae [3]) of 6.25 µM and an Activity (Streptococcus pneumoniae [8]) of 4. The Activity (Streptococcus pneumoniae [9]) was “Active”, the MIC (Streptococcus mutans) was 20 µM (≈ 8.15 µg/mL) and the MIC (Streptococcus pneumoniae [10]) was 5 µM (≈ 2.04 µg/mL). The MIC (Streptococcus pneumoniae [11]) was 6.25 µM (≈ 2.55 µg/mL), the Activity (Streptococcus sp. [12]) was “Active” and the Activity (Streptococcus pneumoniae [13]) was 2. For the same molecule, the MIC (Enterococcus faecalis) was 20 µM (≈ 8.15 µg/mL) and the MIC (Streptococcus mitis) was 10 µM (≈ 4.08 µg/mL).

`CN(C)[C@@H]1C(O)=C(C(N)=O)C(=O)[C@@]2(O)C(O)=C3C(=O)c4c(O)cccc4[C@@](C)(O)[C@H]3C[C@@H]12` [TETRACYCLINE] was tested, and the MIC (Streptococcus sp. [1]) was 128 µg/mL (≈ 288 µM), the MIC (Streptococcus pneumoniae [3]) was 8 µg/mL and the MIC (Streptococcus sp. [2]) was 0.5 µg/mL (≈ 1.13 µM).
